Results published in US20200337337A1, “ANIMAL FEED COMPOSITIONS COMPRISING MURAMIDASE AND USES THEREOF” (DSM IP ASSETS B.V., priority 2017, published 2020).
Marks after values point to notes of the source that are not given here.

Test system: male broiler chickens (Cobb 500)
Assay: Experiment in vivo 1: apparent ileal digestibility of crude protein, fat and energy
Conditions: supplemented feed: B Zn-Bacitracin 50 mg/kg; C Muramidase 40 000 U/g; Cobb 500 broilers
From the text: Day-old male broiler chickens (Cobb 500) were supplied by a commercial hatchery (Joseph Grelier S. A., Elevage avicole de la Bohadière, F-49290 Saint-Laurent de la Plaine, France).
On the day of arrival (day 1), the chickens were divided by weight into groups of 18 birds. Each group was placed in one floor-pen littered with wood shavings and allocated to one of the different treatments.
Each treatment was replicated with 12 groups. The chickens were housed in an environmentally controlled room. The room temperature was adapted to the age of the birds. In the first few days an additional infra-red electric heating lamp was placed in each pen. Moreover, in the first week feed was offered to the birds as crumbled pellets, afterwards as pelleted feed. The birds had free access to feed and water.
The experimental diets (Starter and Grower) were based on soybean meal, wheat and rye (12%) as main ingredients (Table 2). The diets were formulated to contain 210 g crude protein and 12.5 MJ/kg MEN for the starter period and 190 g crude protein and 12.9 MJ/kg MEN for the grower period.
The diets were fed either unsupplemented (negative control) or supplemented with Muramidase and Zn-Bacitracin as follows:
Appropriate amount of the solid product (Zn-Bacitracin) was mixed with a small quantity of the basal feed as a premix which was then added to the feed to get the final concentration, according to the treatments. After mixing the feed was pelleted (3×25 mm) at about 70° C.
Appropriate amount of the liquid preparations of Muramidase was diluted in water and sprayed onto the respective pelleted feed to get the final concentrations in the feed corresponding to the different treatments. For procedural balance of all treatments the same volume of water were also sprayed onto the pellets of the control diets. […]
Energy determinations were performed using an IKA®-Werke calorimeter (C 2000 basic). TiO2 concentration in feed and digesta were determined by Induction Coupled Plasma (ICP) according to DIN EN ISO 11885:1997 (DIN EN ISO 1998) after H2SO4/Na2SO4 mineralization. […]

Substance: Zn-Bacitracin
- Apparent ileal digestibility Energy (%): 90.1^a %
- Apparent ileal digestibility Fat (%): 82.2^a %
- Apparent ileal digestibility Protein (%): 76.3^a %
